Experimental findings from patent US5331006A, “Amino acid analogs as CCK antagonists” (Warner-Lambert Company, priority 1991, dated 1994) are described below.

In one experiment the target is T1, CCK receptor sites (Mus musculus, UniProt P56481).
T1 construct: from tissue; host or cells: cerebral cortex membranes of male CFLP mice
T1 sequence (P56481 1-453): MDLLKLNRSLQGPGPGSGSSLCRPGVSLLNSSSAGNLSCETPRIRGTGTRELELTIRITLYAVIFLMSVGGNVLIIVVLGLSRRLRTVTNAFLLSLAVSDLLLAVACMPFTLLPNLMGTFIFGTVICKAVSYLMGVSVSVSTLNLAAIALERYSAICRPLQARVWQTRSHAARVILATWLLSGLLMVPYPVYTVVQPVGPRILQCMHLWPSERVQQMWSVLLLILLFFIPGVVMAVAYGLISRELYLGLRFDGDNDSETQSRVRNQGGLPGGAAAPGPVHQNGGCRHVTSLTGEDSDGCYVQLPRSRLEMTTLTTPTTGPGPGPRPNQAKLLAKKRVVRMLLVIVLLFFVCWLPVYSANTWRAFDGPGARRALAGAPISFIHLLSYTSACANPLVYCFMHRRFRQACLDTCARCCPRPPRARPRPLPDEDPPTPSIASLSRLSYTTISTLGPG
The experiment in a line: CCK receptor binding, displacement of tritiated pentagastrin from mouse cerebral cortex membranes. The settings on record: 2 nM tritiated pentagastrin, mouse cerebral cortical membranes; Ki from IC50 by Cheng-Prusoff. More on the design: key: IA = Inactive in respect to this binding assay. On the procedure: The biological activity of compounds of the present invention was evaluated employing an initial screening test which rapidly and accurately measured the binding of the tested compound to known CCK receptor sites. […] (See Hays, et al, Neuropeptides 1:53-62, 1980; and Satuer, et al, Science 208:1155-1156, 1980.)
In this screening test the cerebral cortices taken from male CFLP mice weighing between 30 to 40 g were dissected on ice, weighed, and homogenized in 10 volumes of 50 mM Tris-HCl buffer (pH 7.4 at 0° to 4° C.). The resulting suspension was centrifuged, the supernate was discarded, and the pellet was washed by resuspension in Tris-HCl buffer followed by recentrifugation. The final pellet was resuspended in 20 volumes of […] Hepes buffer (pH 7.2 at 23° C.) containing 130 mM NaCl, […] KCl, […] MgCl2, […] EDTA, 5 mg/mL bovine albumin, and bacitracin (0.25 mg/mL).
In saturation studies, cerebral cortical membranes were incubated at 23° C. for 120 minutes in a final volume of 500 μL of Hepes incubation buffer (pH 7.2) together with 0.2-20 nM tritiated-pentagastrin (Amersham International, England).
In the displacement experiments, membranes were incubated with a single concentration (2 nM) of ligand, together with increasing concentrations of competitive test compound. In each case, the nonspecific binding was defined as that persisting in the presence of the unlabeled octapeptide CCK26-33 (10^-6 M).
Following incubation, radioactivity bound to membranes was separated from that free in solution by rapid filtration through Whatman GF/B filters and washed three times with 4 mL of ice cold Tris-HCl buffer. Filters from samples incubated with tritiated pentagastrin were placed in polyethylene vials with 4 mL of scintillation cocktail, and the radioactivity was estimated by liquid scintillation spectrometry (efficiency 47% to 52%).
The specific binding to CCK receptor sites was defined as the total bound tritiated pentagastrin minus the amount of tritiated pentagastrin bound in the presence of 10^-6 octapeptide, CCK26-33.
Saturation curves for specific tritiated pentagastrin binding to mouse cortical membranes were analyzed by the methods of Scatchard (Ann. New York Acad. Sci. 51:660-672, 1949; Hill, J. Physiol. 40:IV-VIII, 1910) to provide estimates for the maximum number of binding sites (βmax)and the equilibrium dissociation constant (Ka).
In displacement experiments, inhibition curves were analyzed by either logit-log plots or the iterative curve fitting computer program ALLFIT (DeLean, Munson, and Redbard, 1978) to provide estimates of the IC50 and nH (apparent Hill coefficient) values). IC50 values were defined as the concentration of test compound required to produce 50% inhibition of specific binding).
The inhibition constant (Ki) of the test compound was then calculated according to the Cheng-Prusoff equation: [formula] where [L] is the concentration of radiolabel and Ka is the equilibrium dissociation constant.
The Ki values for several representative compounds of the present invention are present in Table II.
On to `CC(Cc1ccc[n+]([O-])c1)(NC(=O)OC1C2CC3CC(C2)CC1C3)C(=O)NC(CO)Cc1ccccc1` (centres unmarked) [drawing 60 (Diast I)], for which the Ki entry was “IA”. As to `CC(Cc1ccncc1)(NC(=O)OC1C2CC3CC(C2)CC1C3)C(=O)NC(CO)Cc1ccccc1` (centres unmarked) [drawing 61 (Diast II)], the Ki result was “IA”. In the case of `CC(Cc1c[nH]c2ccncc12)(NC(=O)OC1C2CC3CC(C2)CC1C3)C(=O)NC(CO)C(O)c1ccccc1` (centres unmarked) [drawing 67], the Ki entry is “IA”.

The experiment is the same for the next values; noted with them: 2 nM tritiated pentagastrin, mouse cerebral cortical membranes; Ki from IC50 by Cheng-Prusoff; read-out: Ki.
Regarding `CC(Cc1ccncc1)(NC(=O)OC1C2CC3CC(C2)CC1C3)C(=O)NC(CO)Cc1ccccc1` (centres unmarked) [drawing 61 (Diast I)], the Ki was determined as 370 nM. On the same count and under the same terms, to `CN1c2ccccc2C(c2ccccc2)=NCC1CC(C)(NC(=O)OC1C2CC3CC(C2)CC1C3)C(=O)NCCc1ccccc1` (centres unmarked) [drawing 64 (Diast I)] belongs 760 nM. Consider `CC(Cc1c[nH]c2ncccc12)(NC(=O)OC1C2CC3CC(C2)CC1C3)C(=O)NC(CO)C(O)c1ccccc1` (centres unmarked) [drawing 66 (Diast I)], for which the Ki stood at 580 nM. Same read-out and setting: then `CC(Cc1c[nH]c2ncccc12)(NC(=O)OC1C2CC3CC(C2)CC1C3)C(=O)NC(CO)C(O)c1ccccc1` (centres unmarked) [drawing 66 (Diast II)], with 43 nM; and `CC(Cc1c[nH]c2ccncc12)(NC(=O)OC1C2CC3CC(C2)CC1C3)C(=O)NC(CO)C(O)c1ccccc1` (centres unmarked) [drawing 69], with 2300 nM.
